Reference: patent US10457710B2, “Antimicrobial peptides, their variants and uses” (priority 2015, dated 2019)
Where a SMILES comes first, the peptide text is derived from it. [ ]: non-standard residue; d: D form.

Key:
[1] = system: clinical strains of bacteria and yeasts; assay: MIC, all clinical bacteria and yeasts tested together; type: cell-based; conditions: bacterial strains other than E. coli
Experimental: Minimum inhibition concetrations (MICs) were determined against Escherichia coli (ATCC 25922), Staphylococcus aureus (ATCC 25923), Klebsiella pneumoniae (ATCC 10031) and Pseudomonas aeruginosa (ATCC 27853). Also clinical strains of E. coli, K. pneumoniae, E. cloacae, P. aeruginosa, Serratia marcescens, Proteus mirabilis, S. pneumoniae, Acinetobacter baumannii, A. johnsonii and S. aureus were used for MICs assays. Additionally, clinical strains of yeast including Candida albicans, C. glabrata, C. parapsilosis and C. quillermondiae were used. The susceptibility of these microorganisms to Chain peptides were determined using micro broth dilution assay. Colonies of the respective microorganism from Muller Hinton (MH) agar plates incubated overnight were suspended in MH broth media and final concentration of microorganism was adjusted to 5.0×10^5 cfu/ml. An aliquot of 10 μl of each Chain peptide, or gentamicin, tetracycline as reference antibiotics were added in differing concentrations along with 90 μl of bacterial suspension to 96 well polypropylene plates and incubated at 37° C. for 20 to 24 hours. Concentrations of Chain peptides and reference antibiotics ranged from 0.125 to 128 μg/ml and the MICs were recorded as the lowest concentration with no visual growth of bacteria. Similarly, antifungal MICs were tested in Potato dextrose broth. […]

MRSA strains = assay: MIC, synergistic activity with Ertapenem (4 μg/ml); type: cell-based, S. aureus; conditions: Ertapenem 4 μg/ml; D-peptide
Experimental: Peptides Chain 104, Chain 105, Chain 201, Chain 308, Chain 310 were tested against antibiotic-sensitive strains of S. aureus RN4220 and methicillin resistant strains of S. aureus COL (MRSA). Chain peptides comprising of either L- or D-form amino acids were tested against these bacteria, and the D-form peptides were found have better activity compared to L-form (Table 6). Synergistic activity of chain peptides along with Ertapenem (4 μg/ml) was tested to know whether it will influence the activity against MRSA strains. […] Chain 310 has the best antibacterial activity against the MRSA strains with a MIC of 0.06 & 0.03 μg/ml along with Ertapenem (4 μg/ml) for both forms of L and D-peptides (Table 6).

[2] = system: Escherichia coli (ATCC 25922); assay: Radial diffusion assay (RDA); type: cell-based; conditions: Peptides 50 μg, Gentamycin 5 μg; diameter including the wells
Experimental: (§1) The radial diffusion assay (RDA) was carried out as described by Andersen et al. (2010). Briefly, 30 ml of 1/10 Muller-Hinton broth (MHB) supplemented with 1% agarose and 5.0×10^5 CFU/ml S. aureus or E. coli or K. pneumoniae, P. aeruginosa cells was poured into a single-well omnitray (Nunc) and overlaid with a TSP 96-well plate. […] The peptides were also tested against Fusarium oxysporum and Verticillium dahliae, for which ⅓ potato dextrose agarose was used. To test the synergistic effect of peptides, each peptide was mixed in equimolar concentrations. Mix1 (met1-12), Mix2 (met3, 4 and 5), Mix3 (met 8, 9 and 10), Mix 4 (met11, 12) and Mix5 (8, 9, 10, 11, 12) were prepared and tested against E. coli and S. aureus. Gentamicin and vancomycin were included as positive controls for bacteria and amphotericin B was used as the control for fungi.

[3] = system: Pseudomonas aeruginosa (ATCC 27853); assay: Radial diffusion assay (RDA); type: cell-based; conditions: Peptides 50 μg, Gentamycin 5 μg; diameter including the wells
Experimental: as §1

[4] = system: Staphylococcus aureus (ATCC 25923); assay: Radial diffusion assay (RDA); type: cell-based; conditions: Peptides 50 μg, Gentamycin 5 μg; diameter including the wells
Experimental: as §1

[5] = system: Klebsiella pneumoniae (ATCC 10031); assay: Radial diffusion assay (RDA); type: cell-based; conditions: Peptides 50 μg, Gentamycin 5 μg; diameter including the wells
Experimental: as §1

[6] = system: Escherichia coli (ATCC 25922), Staphylococcus aureus (ATCC 25923), Klebsiella pneumoniae (ATCC 10031) and Pseudomonas aeruginosa (ATCC 27853); assay: Radial diffusion assay, four ATCC bacterial strains together; type: cell-based; conditions: Gentamicin 5 μg
Experimental: The radial diffusion assay (RDA) was carried out as described by Andersen et al. (2010). Briefly, 30 ml of 1/10 Muller-Hinton broth (MHB) supplemented with 1% agarose and 5.0×10^5 CFU/ml S. aureus or E. coli or K. pneumoniae, P. aeruginosa cells was poured into a single-well omnitray (Nunc) and overlaid with a TSP 96-well plate. One hundred μg of each synthesized peptide was tested. The peptides were also tested against Fusarium oxysporum and Verticillium dahliae, for which ⅓ potato dextrose agarose was used. To test the synergistic effect of peptides, each peptide was mixed in equimolar concentrations. Mix1 (met1-12), Mix2 (met3, 4 and 5), Mix3 (met 8, 9 and 10), Mix 4 (met11, 12) and Mix5 (8, 9, 10, 11, 12) were prepared and tested against E. coli and S. aureus. Gentamicin and vancomycin were included as positive controls for bacteria and amphotericin B was used as the control for fungi.
By using rational design techniques, we have designed variants of peptides by incorporating or replacing various amino acids in the original peptides. Thus, we have designed and modified Chain 100, Chain 200 and Chain 300 with tryptophan (W), arginine (R) and lysine (K) at various positions to improve antimicrobial activity (FIGS. 4a-c and 5a-c). In some peptides we have also used other amino acids such as Leucine (L), Cysteine (C), Isoleucine (I), Phenylalanine (F) and Alanine (A). […]

Q: With CC(C)C[C@@H](NC(=O)[C@H](N)CCCNC(=N)N)C(=O)N[C@H](CCCCN)C(=O)N[C@H](CCCNC(=N)N)C(=O)N[C@H](Cc1c[nH]c2ccccc12)C(=O)N[C@H](CCCNC(=N)N)C(=O)N[C@H](CC(C)C)C(=O)N[C@H](Cc1ccccc1)C(=O)N[C@H](CCCNC(=N)N)C(=O)N[C@H](CCCCN)C(=O)N[C@H](CCCNC(=N)N)C(=O)O [Chain306D] (H-[dR][dL][dK][dR][dW][dR][dL][dF][dR][dK][dR]-OH) as the molecule, how does the “activity for the rest of the bacterial strains” value [1] read?
A: Its value is over 32 µg/mL.

Q: For CC(C)C[C@@H](NC(=O)[C@@H](CCCCN)NC(=O)[C@@H](CCCCN)NC(=O)[C@@H](Cc1ccccc1)NC(=O)[C@@H](CC(C)C)NC(=O)[C@@H](Cc1c[nH]c2ccccc12)NC(=O)[C@@H](CCCNC(=N)N)NC(=O)[C@@H](Cc1c[nH]c2ccccc12)NC(=O)[C@@H](CCCCN)NC(=O)[C@@H](CCCNC(=N)N)NC(=O)[C@H](N)CCCCN)C(=O)O [Chain310D] (H-[dK][dR][dK][dW][dR][dW][dL][dF][dK][dK][dL]-OH), which “MIC against the MRSA strains along with Ertapenem” value (MRSA strains) is on record?
A: The value was 0.03 µg/mL.

Q: For Gentamicin [reference compound], which “Inhibition zone, Escherichia coli” value [2] is on record?
A: The value was 22 mm.

Q: What about the “Inhibition zone, Pseudomonas aeruginosa” value [3] of the same molecule?
A: The value was 24 mm.

Q: And the “Inhibition zone, Staphylococcus aureus” value [4]?
A: Its value is 24 mm.

Q: And the “Inhibition zone, Klebsiella pneumoniae” value [5]?
A: The value was 22 mm.

Q: What about the “zone of inhibition, four ATCC strains” value [6] of the same molecule?
A: Its value is 22-24 mm.
